The text below walks through data of US7098307B2, “Neo-tryptophan” (Mayo Foundation for Medical Education and Research, priority 1998, dated 2006).

Square brackets hold non-standard residues; d marks the D form. Peptide text beside a SMILES is read from it. Ala(indol-4-yl) = N[C@@H](Cc1cccc2[nH]ccc12)C(=O)O; NMeR = CN[C@@H](CCCNC(=N)N)C(=O)O; Tle = CC(C)(C)[C@H](N)C(=O)O

One data set deals with T1, human NTR1 (Homo sapiens, UniProt P30989).
T1 construct: expressed in transfected cells; host or cells: CHO-K1
T1 sequence (P30989 whole entry): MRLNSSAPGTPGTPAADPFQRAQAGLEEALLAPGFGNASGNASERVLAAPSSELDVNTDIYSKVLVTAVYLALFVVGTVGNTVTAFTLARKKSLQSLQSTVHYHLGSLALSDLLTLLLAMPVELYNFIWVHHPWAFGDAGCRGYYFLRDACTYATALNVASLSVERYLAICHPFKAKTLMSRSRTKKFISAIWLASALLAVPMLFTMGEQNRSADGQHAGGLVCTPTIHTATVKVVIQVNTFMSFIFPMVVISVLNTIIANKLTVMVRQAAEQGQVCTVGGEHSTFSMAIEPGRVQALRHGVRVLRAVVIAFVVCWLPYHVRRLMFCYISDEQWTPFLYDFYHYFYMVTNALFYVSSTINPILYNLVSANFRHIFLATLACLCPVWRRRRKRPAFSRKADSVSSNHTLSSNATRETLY
Briefly: Competition binding with [3H]NT, membranes of CHO-K1 cells transfected with human NTR1.

Data set [1] can be described thus: Degradation in rat plasma (HPLC peak area). It counts as in vitro ADME. The following applies: 25% plasma, 37° C., 0.5 mg/mL polypeptide, read-out: half-time, Plasma Rat (converted). The text has this:
(§1) For the degradation studies, data were plotted in linear form as a semi-log plot with SigmaPlot for Windows Version 4.00. Linear regression on these plots provided the parameters used to calculate the half-time (t1/2) for degradation of each polypeptide. The correlation coefficient (R) for the linear regression was taken as a measure of the goodness-of-fit.

A short description of data set [2]: Degradation in rat intestinal preparation. Type of data set: in vitro ADME. To be noted: pH 7.4, 37° C., read-out: half-time, Rat Intestinal Preparation (converted). The method, then:
For intestinal preparations, rats were sacrificed by decapitation, and the small intestines removed. The tissue was washed with ice-cold PBS (10 mM, pH 7.4). About […] of intestinal tissue was added to about 10 mL of PBS and homogenized using a Brinkman polytron homogenizer (setting 6). After homogenization, 10 mL of PBS was added to 10 mL of the intestinal homogenate. […] The supernatant was removed and stored at −20° C. until testing. Immediately before incubation with the polypeptide, the intestinal preparation was filtered through a 0.2 μm filter. Testing procedures were similar to those for the plasma tests.
as §1

The target of a further data set is T2, dopamine D2 receptors (Homo sapiens, UniProt P14416).
T2 construct: Human brain tissue; from tissue; host or cells: human brain tissue
T2 sequence (P14416 whole entry): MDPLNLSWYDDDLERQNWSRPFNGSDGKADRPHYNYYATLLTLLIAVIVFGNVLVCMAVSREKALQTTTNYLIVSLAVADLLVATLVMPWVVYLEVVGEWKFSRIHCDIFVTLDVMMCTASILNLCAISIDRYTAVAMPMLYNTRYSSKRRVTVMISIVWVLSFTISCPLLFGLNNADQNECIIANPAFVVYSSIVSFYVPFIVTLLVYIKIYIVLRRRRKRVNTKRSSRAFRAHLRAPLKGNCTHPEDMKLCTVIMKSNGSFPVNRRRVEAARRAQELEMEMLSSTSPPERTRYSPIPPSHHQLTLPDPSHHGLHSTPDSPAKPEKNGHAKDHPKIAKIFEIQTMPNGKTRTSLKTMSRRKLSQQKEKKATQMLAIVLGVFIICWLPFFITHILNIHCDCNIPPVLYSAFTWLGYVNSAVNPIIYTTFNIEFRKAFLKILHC
Briefly: Radiolabeled competitive binding, human brain tissue, dopamine.

A short description of data set [3]: Catalepsy (fixed rearing posture) in mice. Type of data set: in vivo. The following applies: 5 mg/kg ip. The method, then: The following experiments were performed to assess the ability of NT69L to cause and influence catalepsy. Male Sprague-Dawley rats (150–250 g) or CD-1 mice (24–26 g) were housed in a temperature-controlled room in groups of five with free access to food and water. The animals were kept on a 12 hour light/dark cycle, and all tests were performed during the light cycle. The test for catalepsy is well established and quite simple (Munkvad et al., Brain Behav. Evol. 1:89–100(1968)). […] Thirty minutes after injection, the animals were tested for catalepsy. For rats, the test involved simply placing the animal's fore paws on a suspended metal bar 10 mm in diameter, 11 cm above the counter. The time elapsed until the animal's fore paws touch the counter was recorded. […] For mice, catalepsy was scored based on the time that the mice maintained a fixed rearing posture against the side of the cage (Adams et al., Proc. Natl. Acad. Sci. USA 94:12157–12161 (1997)). The cut-off time was 20 seconds, and each animal was tested three times for each time point.

In the next data set the test system is NT binding sites. Kind of data set: [125I]NT binding in brain tissue of rats chronically treated. It counts as in vivo, rat. The following applies: 1 mg/kg ip daily four days, 5 mg/kg day five. The procedure: The effect of chronic treatment with NT69L on the number of NT binding sites within brain was assessed. Rats were treated daily with NT69L (1 mg/kg; ip) for four days. On day five, the rats were treated with 5 mg/kg (ip) NT69L, tested behaviorally, and then sacrificed. The PAG and rest of brain were dissected from the animal and used in NT binding analysis. Briefly, homogenates were prepared from freshly obtained PAG and the rest of brain of rats according to Goedert et al. (Brain Res. 304, 71–81 (1984)) with the following modifications: the assay buffer contained the peptidase inhibitors 1,10 phenanthroline (1 μM) and aprotonin (5 mg/ml). For PAG and rest of brain binding assays, tissues were incubated with 0.3 nM [^125I]NT (NEN, Boston, Mass.) at room temperature for 30 minutes. Total and nonspecific binding was measured and the binding sites were normalized to polypeptide concentrations by BCA protein determination (Pierce Chemical Co., Rockford, Ill.).

A short description of data set [4]: Body weight and food intake in rats. It counts as in vivo, rat. The following applies: for increase from original body weight at day 15: saline 29%. The method, then: Two groups of male Sprague-Dawley rats (small and large) and one group of genetically obese Zucker rats were used to study the influence of NT69L on various aspects of body weight. The group of small Sprague-Dawley rats weighed about 270 g at the beginning of the study, while the group of large Sprague-Dawley rats weighted about 400 g. […] The rats had free access to commercial hard rat chow pellets and tap water. During the study, the rats received 100 μL of either saline only or 1 μg/kg, 10 μg/kg, or 1 mg/kg of NT69L on days 1, 2, 7, 8, 11, and 12. Food intake (g), water consumption (mL), and body weight (g) were recorded daily for 15 days. The results were presented as mean ± SEM, or as % of original weight. The data were compared by variance analysis (unpaired or paired Student's t test) and Rank sum test.

The nature of data set [5]: Blood glucose and hormone levels in rats. It counts as in vivo, rat. The following applies: 1 mg/kg ip.

By Kd is commonly meant the constant that tells how readily two partners part at equilibrium. Regarding `CN[C@@H](CCCNC(=N)N)C(=O)N[C@@H](CCCCN)C(=O)N1CCC[C@H]1C(=O)N[C@@H](Cc1cccc2[nH]ccc12)C(=O)N[C@H](C(=O)N[C@@H](CC(C)C)C(=O)O)C(C)(C)C` [NT69L] (H-[NMeR]KP[Ala(indol-4-yl)][Tle]L-OH; N-terminus and C-terminus assumed), the Kd on human NTR1 stood at 0.00155 ± 9e-05 µM; on dopamine D2 receptors, 13.3 µM. The “increase in binding affinity at the human receptor versus Eisai” value at human NTR1 amounted to 60 fold. The half-life at 0.5 mg/mL in data set [1] was 250 h. Moreover, in data set [2], the half-life is 4.1 h. Besides, in data set [3], the catalepsy in mice result is listed as “caused no catalepsy”. The “[125I]NT binding, PAG tissue” value in the data set with NT binding sites (control 2.34) came out at 1.89 dpm/μg protein. For the same molecule, the “[125I]NT binding, rest of brain tissue” value in the data set with NT binding sites (control 3.1) turned out to be 2.1 dpm/μg protein. For the same molecule, the “food intake versus saline controls” value in data set [4] (Zucker rats, one to two days post injection) was “significantly reduced”; in data set [4] (large Sprague-Dawley rats, one to two days post injection), “significantly (P<0.003) less”; in data set [4] (small Sprague-Dawley rats, throughout the experiment), “significantly (P<0.003) less”. In addition, the “increase in original body weight by day 15” value in data set [4] (genetically obese Zucker rats, 1 mg/kg ip, saline 31%) is reported as 25%. For the same molecule, the “reduction in original body weight by day 15” value in data set [4] (large Sprague-Dawley rats, 1 mg/kg ip, saline […] increase) is on record as 3.0%. Moreover, the “increase from original body weight at day 15” value in data set [4] (small Sprague-Dawley rats, 1 μg/kg ip) is listed as 9.0%; in data set [4] (small Sprague-Dawley rats, 10 μg/kg ip) it was 8.4%. Also, in data set [5] (Sprague-Dawley rats, one hour post injection, saline 2.6), the T4 level stood at 1.8 µg/dL. Further, the corticosterone level in data set [5] (Sprague-Dawley rats, one hour post injection, saline 6.1) worked out at 24.6 µg/dL. This molecule came in with a TSH level in data set [5] (Sprague-Dawley rats, one hour post injection, saline 7.65) of 0.9 mIU/L. The same molecule returned a glucose level in data set [5] (Sprague-Dawley rats, one hour post injection, saline 130) of 221 mg/dL. The molecule further displayed a T4 in data set [5] (Zucker rats, one hour after injection, control 1.47) of 1.03 µg/dL. In addition, the TSH in data set [5] (Zucker rats, one hour after injection, control 1.9) is 0.43 mIU/L. Also, the corticosterone in data set [5] (Zucker rats, one hour after injection, control 10.9) turned out to be 19.7 µg/dL. Besides, in data set [5] (Zucker rats, one hour after injection, control 140), the blood glucose is given as 310 mg/dL.
